Where a SMILES comes first, the peptide text is derived from it.
What was measured:
[1] = Peptide stability in human plasma (TCA assay); type: in vitro ADME; details: human plasma (EDTA), 37 °C, 300 rpm, TCA 3% precipitation, RP-HPLC UV 223 nm, peak area relative to 0 min, at least triplicates, read-out: peptide loss in human plasma relative to the initial concentration
Procedure: Peptide stability tests were performed according to a TCA stability assay based on the method used by Nguyen et al.. Peptides were dissolved in water, mixed with human plasma* to a final concentration of 1.0 mg/mL, and incubated at 37 °C with agitation (300 rpm, Thermomixer, Eppendorf AG, Hamburg, Germany). After 0, 1, 2, 3, 6 and 24 h, 80 μL of the solution was taken and mixed with 15% TCA to obtain a final concentration of 3% (v/v). The samples were incubated in ice for 10 min and centrifuged for 10 min (12,000 rpm, Microfuge 16, Beckman Coulter, Brea, CA, USA). Supernatants were analyzed by RP-HPLC on column using a linear gradient of acetonitrile (5–100% over 15 min) with detection at 223 nm. Peptides were quantified by their peak areas relative to the initial peak areas (0 min). All stability tests were performed at least in triplicates. As control samples peptides dissolved only in water under the same conditions were used. To additionally assess the changes in the incubated samples (peptide degradation) mass spectrometry analysis was used. LC-MS experiments were performed using ESI-IT-TOF (Shimadzu, Kyoto, Japan).
* Blood was collected from healthy anonymous donors and EDTA was then used as an anticoagulant. The procedure was approved by the Independent Bioethics Commission for Research of the Medical University of Gdańsk (NKBBN/387/2014).

[2] = Circular dichroism over incubation; type: physicochemical; details: 1.0 mg/mL in PBS pH 7.4, 37 °C with agitation, up to 14 days; centrifuged clear solution, far-UV 195-250 nm
Procedure: Circular dichroism spectra were recorded on a Jasco J-815 spectropolarimeter (Jasco, Victoria, BC, Canada). Far-UV spectra (195–250 nm) were registered for all peptides dissolved in PBS pH 7.4 at a concentration of 1.0 mg/mL and incubated at 37 °C with agitation. Spectra were recorded before and after 1,2, 3, 7, 10 and 14 days of incubation. All spectra were corrected for the buffer signal. The CD spectra were recorded three times, using a 0.2 mm cell.

[3] = Thioflavin T fluorescence assay; type: physicochemical; details: 1.0 mg/mL in PBS pH 7.4, 37 °C, orbital shaking; ThT excitation 420 nm, emission 482 nm
Procedure: All peptides were dissolved in Eppendorf Low Retention Tubes in 1.0 mL of PBS pH 7.4. The concentration of the solutions of peptides was 1.0 mg/mL. The peptides were incubated at 37 °C with constant orbital shaking. Aliquots for the evaluation of the fibrillization process were taken before incubation and after 1, 2, 3, 6, 14, and 21 days or only after 7 days, depending on the experiments.
Ten microliters of peptide solution incubated under fibrillization conditions (see Fibril preparation) were mixed with 10 µL of 1.5 mM ThT in water and 90 µL of PBS pH 7.4. The fluorescence was measured on a Tecan Infinite 200Pro (Tecan Group Ltd., Männedorf, Switzerland) spectrofluorometer in 96-well plates (Costar Black®), with excitation wavelength set at 420 nm and emission in the range of 455 to 600 nm.

[4] = biological target: T1, human neutrophil elastase (Homo sapiens, UniProt P08246); assay: Incubation with neutrophil elastase (release of active sequence); type: in vitro ADME; details: non-fibrillated peptide 1.0 mM, 0.1 M Tris HCl, 500 mM NaCl, 0.05% Triton X-100, 20 mM CaCl2, pH 7.5; enzyme 150 nM; 30 min, 37 °C; RP-UHPLC (PDA) and LC-MS
T1 construct: purchased Sigma Aldrich
T1 sequence (P08246 30-267): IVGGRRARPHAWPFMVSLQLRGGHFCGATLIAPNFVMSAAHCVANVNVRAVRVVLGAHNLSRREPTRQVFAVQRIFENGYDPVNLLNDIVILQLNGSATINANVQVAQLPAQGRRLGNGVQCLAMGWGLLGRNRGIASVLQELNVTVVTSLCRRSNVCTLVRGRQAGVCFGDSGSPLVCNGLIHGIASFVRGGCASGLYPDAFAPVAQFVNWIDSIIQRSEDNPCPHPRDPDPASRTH
Procedure: An enzymatic stability study was performed using the human neutrophil elastase enzyme (Sigma Aldrich, St. Louis, MO, USA). The peptides were dissolved in a buffer (with composition: 0.1 M Tris HCl, 500 mM NaCl, 0.05% Triton X-100, 20 mM CaCl2, pH 7.5), to a final concentration 1.0 mM. The fibrils formed in the aggregation process were dissolved in PBS at pH 7.4 to a concentration of 1 mg/mL. The enzyme was added to the peptide/fibril solution to a concentration of 150 nM and incubated for 30 min (peptides) or 60 min (fibrils), at 37 °C, with agitation. A 10% aqueous TFA solution was added to the reaction mixture to stop the digestion. The progress of the reaction was monitored by RP-UHPLC with a PDA (Photo Diode Array) detector on a Kinetex C8 column (2.6 μm, 100 Å 2.6 × 100 mm, Phenomenex, Torrance, CA, USA), at a gradient of 0–50% B for 15 min, and by LC-MS.

46BR.1N fibroblasts = assay: XTT proliferation assay, fibroblasts; type: cell-based, human; details: for increase in proliferation by fibrils compared to control (XTT): fibrillated form, 10 µL of fibrils (50 µg/mL), 48 h, three independent experiments; for stimulation of proliferation (XTT), in words / inhibition of proliferation (XTT), in words: non-fibrillated peptide, 48 and 72 h; for inhibition of proliferation (XTT), in words: up to 25 µg/mL
Procedure: Immortalized human HaCaT [69, 70] keratinocytes (DKFZ, Heidelberg, Germany) and the human dermal fibroblast cell line 46BR.1N (ECACC, Sigma Aldrich, St. Louis, MO, USA) were used in the study. Cells were routinely grown in culture flasks (growth surface area 25 cm^2) in Dulbecco’s modified Eagle medium (DMEM, Sigma Aldrich, St. Louis, MO, USA), with 4500 mg/L of glucose, 584 mg/L of L-glutamine, sodium pyruvate, and sodium bicarbonate, supplemented with 10% FBS and 100 units/mL of penicillin and 100 μg/mL of streptomycin (Sigma Aldrich, St. Louis, MO, USA), under a humidified atmosphere with 5% CO2 at 37 °C. Medium was changed every 2–3 days.
Lactate dehydrogenase (LDH) activity in cell culture supernatants (Takara, Japan, cat. No. MK401) was measured to determine the cytotoxicity of the tested compounds, and the XTT assay was used to evaluate their effect on cell proliferation. Both tests were performed as previously described according to manufacturers’ instructions. Briefly, cells were seeded into 96-well plates, at a density of 5000 cells per well, in DMEM supplemented with 10% FBS. After 24 h the medium was exchanged for serum-free DMEM containing appropriate concentrations of the tested compounds. Supernatants for LDH analysis were collected after 48 h of incubation. The XTT assay was performed after 48 and 72 h of incubation.
For the analysis of the effect of the peptide fibrils on skin cells, the experiment was performed as described, but the cells were stimulated with 10 µL of the fibrils (50 µg/mL) and incubated for 48 h, when the LDH and XTT assay were then performed.

Compound	metabolised at 24 h, 1 mg/mL [1]	secondary structure by CD [2]	time course of ThT fluorescence increase (fibrillization) [3]	Degradation Yes/No by human neutrophil elastase [4]	increase in proliferation by fibrils compared to control (XTT) (46BR.1N fibroblasts)	stimulation of proliferation (XTT), in words (46BR.1N fibroblasts)	inhibition of proliferation (XTT), in words (46BR.1N fibroblasts)
CC[C@H](C)[C@H](NC(=O)CNC(=O)[C@H](C)NC(=O)[C@H](CCC(N)=O)NC(=O)CNC(=O)CNC(=O)CNC(=O)[C@@H](NC(=O)[C@@H]1CCCN1C(=O)[C@H](C)NC(=O)[C@H](C)NC(=O)CNC(=O)CNC(=O)CNC(=O)[C@H](CCCCN)NC(=O)[C@H](Cc1c[nH]cn1)NC(=O)CNC(C)=O)C(C)C)C(=O)N[C@H](C(=O)N[C@H](C(N)=O)C(C)C)C(C)C [FC-GHK] (Ac-GHKGGGAAPVGGGQAGIVV-NH2)	20%	disordered structure	effective sample fibrilization during the first two days of incubation	Yes	about 10%	stimulated proliferation of both tested cell lines at concentrations of 0.01–10 µg/L	slight inhibition of the proliferation of skin cells after 72 h stimulation
CC[C@H](C)[C@H](NC(=O)CNC(=O)[C@H](C)NC(=O)[C@H](CCC(N)=O)NC(=O)CNC(=O)CNC(=O)CNC(=O)[C@@H](NC(=O)[C@@H]1CCCN1C(=O)[C@H](C)NC(=O)[C@H](C)NC(=O)CNC(=O)CNC(=O)CNC(=O)[C@H](CCCCN)NC(=O)[C@H](Cc1c[nH]cn1)NC(=O)CNC(=O)[C@H](CCCCN)NC(C)=O)C(C)C)C(=O)N[C@H](C(=O)N[C@H](C(N)=O)C(C)C)C(C)C [FC-KGHK] (Ac-KGHKGGGAAPVGGGQAGIVV-NH2)	20%	disordered structure	required at least three days of incubation	Yes	~20%	strongest stimulation was observed for 46BR.1N fibroblasts in concentrations of 0.1–10 µg/mL after 72 h of incubation	did not inhibit the proliferation of skin cells

— publication PMC8067766 (International Journal of Molecular Sciences, 2021)
